Laboratory results taken from patent publication US20240043794A1, “Chemically Defined Serum Albumin Substitutes” (Life Technologies Corporation, priority 2020, published 2024).
Read-outs that look alike come from different tables or passages of the source.

Experiments:
Water solubility = format: physicochemical; conditions: compared to Vitamin E
Text: (§1) Trolox (6-hydroxy-2,5,7,8-tetramethylchroman-2-carboxylic acid), a water-soluble derivative of Vitamin E, was investigated as a replacement for albumin. […] Without any anti-oxidant, aged neurons started to degenerate at about day 4, leaving few viable neurons left on the plate.

[1] = test system: Rat cortical neuron (RCN) cells; assay: Rat cortical neuron (RCN) survival in neurobasal medium with ITS; format: cell-based; conditions: for RCN cell survival: increasing concentrations, assessed on day 6
Text: as §1

neuronal cell = assay: Interactions between B27 supplement components and albumins, neuronal cell viability; format: cell-based; conditions: B27-supplemented media
Procedure: Next, interactions between different components of B27 supplement and various albumins were analyzed (FIGS. 1B-1J). The effect of these molecular interactions were also assessed for their effect on neuronal cell stability in cell culture.

rat neurons [2] = assay: Rat neuron viability with low or high GSH or lipoic acid; format: cell-based; conditions: low or high concentration, compared to control culture
Procedure: Applicants then tested chemically defined components that may replace the catalase and thiol antioxidant activity of albumins. GSH and lipoic acid were assessed for their ability to provide catalase and thiol antioxidant activity by culturing rat neurons in the presence of either low or high concentrations of GSH or lipoic acid and subsequently assaying cell viability.

rat neuron cells [3] = assay: Rat neuron viability with synthetic peptides replacing albumin; format: cell-based; conditions: for rat neuron cell viability, HSA supportive properties: culture medium lacking albumin, FIG. 10; for rat neuron cell growth: neurobasal medium with ITS, day 5, Calcein AM, FIG. 20; for viability of cultured rat neuron cells, HSA-like function: FIG. 11
Text: Albumins such as HSA have a metal binding site, which functions as a chelator of transition metals that are toxic to neuron cells. Applicants therefore investigated whether HSA may be replaced by a synthetic peptide, which mimics the high affinity binding of the functional metal binding site. […] Peptide B, which is the Peptide C sequence extended by 5 additional flanking HSA residues on either end, was similarly non-functional. […] Without wishing to be bound by scientific theory, the additional amino acid residues may block or otherwise inhibit the chelating functions of the Peptide C sequence.
The importance of Peptide C ionic property and sequence specificity in conferring enhancing properties to cell cultures was investigated. The tetrapeptide DAHK (SEQ ID NO:1) is a sequence comprising negatively, neutral, and two positively charged amino acids (−X++). […] To assess if amino acid sequence or charge specificity confers beneficial properties, a scrambled Peptide C sequence was prepared and tested. The scrambled peptide comprising the sequence AKDH (SEQ ID NO: 3; scramble) and charge of X+−+ was tested, and results are shown in FIG. 11.
To determine the impact of peptide length, Applicants assessed a variety of peptides that varied both in length and in the identity of the amino acid residue(s) that flank the Peptide C DAHK sequence (SEQ ID NO:1). Further, to assess the effect of ionic property, peptides were tested that included amino acid substitutions to the peptide of SEQ ID NO:1. The amino acid substitutions were designed to retain ionic and hydrophobic properties of SEQ ID NO:1, namely by preserving the order of negatively charged, hydrophobic uncharged, and positively charged residues. […] The cultures were further supplemented with rHSA, or a variation of the Peptide C derived synthetic peptide.
In a first set of cell cultures, the synthetic peptides included the DAHK (SEQ ID NO:1) amino acid sequence or peptides with additional residues on one or both the N-terminus and C-terminus of SEQ ID NO:1. On day 5 of culturing, the cells were labeled with Calcein AM and counted. […] That is, the length of adjacent residues on the N-terminus and C-terminus of the peptide is not critical for maintaining the function of peptide C unless the conformation is impacted as so not to maintain its beneficial properties in cell culture.

rat neurons [4] = test system: rat neurons
Procedure: (§5) The effect of different BSAs on cell viability was tested using the eBioscience™ Calcein AM Viability Dye, according to manufacturer's protocol. Briefly, rat neurons were cultured in neurobasal medium supplemented with ITS and BSA1 or BSA2 at a concentration of 0.25%.
(§6) The ability of antioxidant to reverse iron-induced toxicity was then investigated. Tocopherol at a concentration of 2 μg/mL in neurobasal medium supplemented with lean supplement (Insulin-Transferrin-Selenium, ITS) was added to cultured rat neuron cells and either BSA1 or BSA2.

rat neurons [5] = assay: Calcein AM viability assay of rat neurons in neurobasal medium with ITS
Procedure: as §5, §6

[6] = test system: mouse embryonic stem cell (mESC); assay: Copper-stressed mESC proliferation, PRESTOBLUE viability; format: cell-based; conditions: 50 μM copper, 100 μg/mL or 50 μg/mL peptide
Procedure: (§2) The effect of metals and synthetic peptides were further assessed in mouse embryonic stem cell (mESC) and HEK293 cell proliferation cultures. mESC and HEK293 cultures were spiked with 50 μM copper, thereby creating a toxic culture environment and inhibiting cell proliferation. […] PRESTOBLUE™ cell viability reagent (Thermo Fisher Scientific, Waltham, MA), was used to assess viability according to the manufacturer's protocol.

[7] = test system: FoxG1 expression in pluripotent stem cells (PSC); assay: FoxG1 expression and specification of PSC differentiation, ICC and qPCR; format: cell-based, human
Procedure: Peptide C (SEQ ID NO:1) was assessed for its effect on cell differentiation. […] Without wishing to be bound by theory, this was likely due to variations in cholesterol levels within the albumin samples. To assess the effect of the tetrapeptide […] on cell differentiation, pluripotent stem cells (PSC) were cultured in the presence either BSA1, BSA2, or peptide C. […] Results are shown in FIGS. 17A and 17B, respectively. […] Upon differentiation, cells will develop their positional identity such as forebrain, midbrain, hindbrain etc. Specification is the step where PSC develop this positional identification.

[8] = Lot-to-lot consistency and shelf life of the peptide; format: physicochemical; conditions: multiple lots, in solution
rat neuron cells [9] = conditions: 50 μM copper, neurobasal medium with ITS
HEK293 cells = assay: Copper-stressed HEK293 proliferation, PRESTOBLUE viability; format: cell-based; conditions: 50 μM copper, 100 μg/mL or 50 μg/mL peptide
Procedure: as §2

[10] = test system: human neural stem cells (NSC); assay: B-27 supplemented cell culture performance of albumins, human NSC; format: cell-based; conditions: B-27 supplemented culture
Procedure: (§3) Commercially available albumins were analyzed for performance in cell cultures. Bovine serum albumin (BSA), human serum albumin (HSA) and recombinant human serum albumin (Rec HSA) from various sources (including different manufacturers, bovine, human, recombinant HSA (made in yeast or rice), and Freestyle CHO MAX media (Thermo Fisher cat. no. K900020) were analyzed. B-27 (Thermo Fisher Scientific cat. no. 17504044) supplemented cell cultures for mouse pluripotent stem cells (PSC), primary rat neurons, or human neural stem cells (NSC) were prepared (approx. 0.5 to 1× final concentration of B27 in medium). The cultures varied only in the source or type of albumin present. Results shown in FIG. 1A illustrate that significant performance differences existed among the albumins tested, and further that performance is dependent on cell type. In fact, two cultures comprising the same cell line and differing only in addition of BSA1 or BSA2 differed in performance.

[11] = test system: mouse pluripotent stem cells (PSC); assay: B-27 supplemented cell culture performance of albumins, mouse PSC; format: cell-based; conditions: B-27 supplemented culture
Procedure: as §3

[12] = test system: human neural stem cells (hNSC); assay: hNSC proliferation, VI-CELL XR cell counting assay; format: cell-based; conditions: compared to BSA1
Procedure: (§4) BSA1 and BSA2 were further analyzed for their effect on stem cells. Mouse embryonic stem cells (mESC) or human neural stem cells (hNSC) were grown in cell culture media containing BSA1 or BSA2, and proliferation was measured. Proliferation of mESCs was measured using PrestoBlue assay (Thermo Fisher Scientific) according to the manufacturer's protocol. Proliferation of hNSCs was measured with VI-CELL™ XR cell counting assay (Beckman Coulter) according to the manufacturer's protocol.

[13] = test system: Mouse embryonic stem cells (mESC); assay: mESC proliferation, PrestoBlue assay; format: cell-based; conditions: compared to BSA1
Procedure: as §4

[14] = Superoxide Dismutase (SOD) Colorimetric Activity Kit; format: biochemical; conditions: range of concentrations
Procedure: Applicants first analyzed the superoxide dismutase (SOD) activity of various albumins, utilizing the Superoxide Dismutase (SOD) Colorimetric Activity Kit (Thermo Fisher Scientific, Waltham, MA), according to the manufacturer's protocol. Briefly, SOD activity was assessed utilizing an assay comprising the reaction of a substrate and Xanthine Oxidase to form superoxide (O^−2), the levels of which are decreased by SOD activity.
Next, the ability of chemically defined components to replace SOD antioxidant activity was tested. Mito-Tempo, which scavenges O2•^− in mitochondria, was compared with HSA for its ability to reduce superoxide, as assessed using the Superoxide Dismutase (SOD) Colorimetric Activity Kit (Thermo Fisher Scientific, Waltham, MA), according to the manufacturer's protocol.

In the case of `Cc1c(C)c2c(c(C)c1O)CCC(C)(C(=O)O)O2` (stereo not drawn) [Trolox, 6-hydroxy-2,5,7,8-tetramethylchroman-2-carboxylic acid], the water solubility (Water solubility) is reported as “higher water solubility”, the working range ([1]; compared to Vitamin E) is reported as “wider working range than Vitamin E” and the RCN cell survival [1] is reported as “reversed cell death”.
For `CC(=O)Oc1c(C)c(C)c2c(c1C)CCC(C)(CCC[C@H](C)CCC[C@H](C)CCCC(C)C)O2` (stereo partly drawn) [X2, Tocopherol acetate], the “effect on neuronal cell viability of B27 component interacting with BSA and HSA” value (neuronal cell) was “positive effects on neuronal cell viability”.
For `N[C@@H](CCC(=O)N[C@@H](CS)C(=O)NCC(=O)O)C(=O)O` [GSH, glutathione], the “rat neuron cell viability” value (rat neurons [2]) was “neither concentration of GSH tested showed significant effects on cell viability”.
In the case of SAYSRGVFRRDAHKSEVAHRFKD [peptide A], the “rat neuron cell viability, HSA supportive properties” value (rat neuron cells [3]) is reported as “did not retain HSA supportive properties”.
With RRDAHKS [SEQ ID NO:13] the “rat neuron cell growth” value (rat neuron cells [3]) was “convey beneficial properties to cell culture”.
In the case of AKDH [reference compound], the “viability of cultured rat neuron cells, HSA-like function” value (“viability of cultured rat neuron cells” below) (rat neuron cells [3]) is reported as “the HSA-like function was abolished”.
With GVFRRDAHKSEVAH [Peptide B] the “rat neuron cell viability, HSA supportive properties” value (rat neuron cells [3]) was “non-functional”.
With `O=C(O)CCCC[C@@H]1CCSS1` (racemic) [Lipoic acid, lipoic acid] the “rat neuron cell viability” value (rat neurons [2]) was “enhanced rat neuron cell viability”.
With `[Fe]` [iron] the rat neuron viability (rat neurons [4]) was “rat neuron viability was decreased”.
In the case of RRDAHKSE [SEQ ID NO:15], the “rat neuron cell growth” value (rat neuron cells [3]) is reported as “convey beneficial properties to cell culture”.
For Vitamin E, the RCN cell survival [1] was “reversed cell death”.
For Tocopherol [reference compound], the “effect on neuronal cell viability of B27 component interacting with BSA and HSA” value (neuronal cell) was “positive effects on neuronal cell viability” and the “reversal of decreased viability due to BSA1 or iron” value (rat neurons [5]; 2 μg/mL) was “reversed decreased viability of the rat neuron cells”.
In the case of RRDAHK [SEQ ID NO:12], the “rat neuron cell growth” value (rat neuron cells [3]) is reported as “convey beneficial properties to cell culture”.
In the case of DAHK [Peptide C], the “rescue of copper stressed cells” value [6] is reported as “rescued the stressed cells in a concentration dependent manner”, the “viability of cultured rat neuron cells” value (rat neuron cells [3]) is reported as “functional in improving viability of cultured rat neuron cells” and the “rat neuron cell viability, HSA supportive properties” value (rat neuron cells [3]) is reported as “enhanced rat neuron cell viability”. The “specification of PSC differentiation” value [7] was “no significant impact”, the “lot-to-lot consistency and shelf life” value [8] was “lot-to-lot consistency and good shelf life, even in solution” and the “prevention of copper induced toxicity” value (rat neuron cells [9]) was “prevented toxicity even in the presence of copper”. For the same compound, the “rescue of copper stressed cells” value (HEK293 cells) was “to a lesser extent”.
With FRRDAHKSEVA [SEQ ID NO:17] the “rat neuron cell growth” value (rat neuron cells [3]) was “convey beneficial properties to cell culture”.
For DTHK [counterpart BSA peptide], the “viability of cultured rat neuron cells” value (rat neuron cells [3]) was “functional in improving viability of cultured rat neuron cells”.
With “BSA1: BSA source with higher iron content; fatty acid free” the cell culture performance [10] was “supportive properties”, the “specification of PSC differentiation” value [7] was “specification of PSC differentiation was impacted” and the cell culture performance [11] was “supportive properties”. For the same compound, the rat neuron viability (rat neurons [5]; albumin at 0.25%, compared to BSA2) was “reduced viability of rat neurons”.
In the case of “BSA2: BSA from a second source; fatty acid rich”, the cell culture performance [10] is reported as “caused toxicity”, the “proliferation of hNSC” value [12] is reported as “reduces proliferation” and the “specification of PSC differentiation” value [7] is reported as “specification of PSC differentiation was impacted”. The “proliferation of mESC” value [13] was “reduces proliferation” and the cell culture performance [11] was “caused toxicity”.
With `CC1(C)CC(NC(=O)C[P+](c2ccccc2)(c2ccccc2)c2ccccc2)CC(C)(C)N1[O]` [Mito-Tempo, (2-(2,2,6,6-tetramethylpiperidin-1-oxyl-4-ylamino)-2-oxoethyl)triphenylphosphonium chloride] the superoxide levels [14] was “decrease superoxide levels in a dose-dependent manner”.
With FRRDAHKSEV [SEQ ID NO:16] the “rat neuron cell growth” value (rat neuron cells [3]) was “convey beneficial properties to cell culture”.
